According to US9302999B2, “Substituted triazoles as herbicides” (E. I. DU PONT DE NEMOURS AND COMPANY, priority 2012, dated 2016):

Legend:
Format in all cases: in vivo
kochia (Kochia scoparia) = assay: Test C pre-/postemergence: kochia
Description: (§1) Seeds of plant species selected from blackgrass (Alopecurus myosuroides), bromegrass, downy (downy bromegrass, Bromus tectorum), foxtail, green (green foxtail, Setaria viridis), ryegrass, Italian (Italian ryegrass, Lolium multiflorum), winter wheat (Triticum aestivum), wild oat (Avena fatua), galium (catchweed bedstraw, Galium aparine), bermudagrass (Cynodon dactylon), surinam grass (Brachiaria decumbens), cocklebur (common cocklebur, Xanthium strumarium), corn (Zea mays), large crabgrass (Digitaria sanguinalis), woolly cupgrass (Eriochloa villosa), foxtail, giant (giant foxtail, Setaria faberii), goosegrass (Eleusine indica), johnsongrass (Sorghum halepense), kochia (Kochia scoparia), lambsquarters (Chenopodium album), morningglory (Ipomoea coccinea), nightshade (eastern black nightshade, Solanum ptycanthum), nutsedge, yellow (yellow nutsedge, Cyperus esculentus), pigweed (Amaranthus retroflexus), ragweed (common ragweed, Ambrosia elation), soybean (Glycine max), common (oilseed) sunflower (Helianthus annuus), Russian thistle (Salsola kali) and velvetleaf (Abutilon theophrasti) were planted into a blend of loam soil and sand and treated preemergence with test chemicals formulated in a non-phytotoxic solvent mixture which included a surfactant.
(§2) At the same time, plants selected from these crop and weed species and also barley (winter barley, Hordeum vulgare), canarygrass (Phalaris minor), chickweed (common chickweed, Stellaria media) windgrass (Apera spica-venti) and deadnettle (henbit deadnettle, Lamium amplexicaule) were planted in pots containing Redi-Earth® planting medium (Scotts Company, 14111 Scottslawn Road, Marysville, Ohio 43041) comprising spaghnum peat moss, vermiculite, wetting agent and starter nutrients and treated with postemergence applications of test chemicals formulated in the same manner. Plants ranged in height from 2 to 18 cm (1- to 4-leaf stage) for postemergence treatments.
(§3) Treated plants and controls were maintained in a greenhouse for 13 to 15 days, after which time all species were compared to controls and visually evaluated. Plant response ratings, summarized in Table C, are based on a scale of 0 to 100 where 0 is no effect and 100 is complete control. A dash (-) response means no test result.

[1] = tested on: pigweed (Amaranthus retroflexus); assay: Test C pre-/postemergence: pigweed
Description: as §1, §2, §3

corn (Zea mays) = assay: Test C pre-/postemergence: corn
In short: (§4)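 Visual injury scored 0–100 (100 = complete control) against untreated controls after 13–15 greenhouse days. Surfactant-containing solvent formulations applied either to soil after sowing (loam/sand) or over 1- to 4-leaf plants, 2–18 cm tall.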

[2] = tested on: velvetleaf (Abutilon theophrasti); assay: Test C pre-/postemergence: velvetleaf
Description: as §1, §2, §3

[3] = tested on: blackgrass (Alopecurus myosuroides); assay: Test C pre-/postemergence: blackgrass
Description: as §1, §2, §3

[4] = tested on: johnsongrass (Sorghum halepense); assay: Test C pre-/postemergence: johnsongrass
Description: as §1, §2, §3

[5] = tested on: winter wheat (Triticum aestivum); assay: Test C pre-/postemergence: winter wheat
Description: as §1, §2, §3

soybean (Glycine max) = assay: Test C pre-/postemergence: soybean
Description: as §1, §2, §3

[6] = tested on: foxtail, giant (giant foxtail, Setaria faberii); assay: Test C pre-/postemergence: foxtail, giant
In short: as §4

[7] = Postemergence, 31 g ai/ha, scale 0 to 100 (0 no effect, 100 complete control)
[8] = Postemergence, 62 g ai/ha, scale 0 to 100 (0 no effect, 100 complete control)
[9] = Postemergence, 125 g ai/ha, scale 0 to 100, 0 no effect, 100 complete control
[10] = Postemergence, 250 g ai/ha, scale 0 to 100
[11] = Preemergence, 31 g ai/ha, scale of 0 to 100, 0 is no effect, 100 is complete control
[12] = Preemergence, 62 g ai/ha, scale of 0 to 100, 0 is no effect, 100 is complete control
[13] = Preemergence, 125 g ai/ha, scale 0 to 100, 0 no effect, 100 complete control
[14] = Preemergence, 250 g ai/ha, scale 0 to 100, 0 no effect, 100 complete control
[15] = Preemergence, 62 g ai/ha, scale 0 to 100, 0 no effect, 100 complete control

SMILES: Cc1nn(-c2ccc(C(F)(F)F)cn2)nc1Oc1ccnc(C(F)(F)F)c1 [Compound 23]
- Plant response rating, Kochia (kochia (Kochia scoparia); [7]): 65
- Plant response rating, Kochia (kochia (Kochia scoparia); [8]): 75
- Plant response rating, Kochia (kochia (Kochia scoparia); [9]): 80
- Plant response rating, Kochia (kochia (Kochia scoparia); [10]): 85
- Plant response rating, Kochia (kochia (Kochia scoparia); [11]): 95
- Plant response rating, Kochia (kochia (Kochia scoparia); [12]): 95
- Plant response rating, Kochia (kochia (Kochia scoparia); [13]): 95
- Plant response rating, Kochia (kochia (Kochia scoparia); [14]): 100
- Plant response rating, Pigweed [1, 7]: 70
- Plant response rating, Pigweed [1, 9]: 80
- Plant response rating, Pigweed [1, 10]: 95
- Plant response rating, Pigweed [1, 11]: 100
- Plant response rating, Pigweed [1, 12]: 100
- Plant response rating, Pigweed [1, 13]: 100
- Plant response rating, Pigweed [1, 14]: 100
- Plant response rating, Corn (corn (Zea mays); [7]): 10
- Plant response rating, Corn (corn (Zea mays); [8]): 15
- Plant response rating, Corn (corn (Zea mays); [9]): 20
- Plant response rating, Corn (corn (Zea mays); [10]): 30
- Plant response rating, Corn (corn (Zea mays); [11]): 5
- Plant response rating, Corn (corn (Zea mays); [15]): 30
- Plant response rating, Corn (corn (Zea mays); [13]): 70
- Plant response rating, Corn (corn (Zea mays); [14]): 85
- Plant response rating, Velvetleaf [2, 7]: 15
- Plant response rating, Velvetleaf [2, 8]: 25
- Plant response rating, Velvetleaf [2, 9]: 40
- Plant response rating, Velvetleaf [2, 10]: 50
- Plant response rating, Velvetleaf [2, 11]: 5
- Plant response rating, Velvetleaf [2, 12]: 25
- Plant response rating, Velvetleaf [2, 13]: 80
- Plant response rating, Velvetleaf [2, 14]: 100
- Plant response rating, Blackgrass [3, 7]: 15
- Plant response rating, Blackgrass [3, 8]: 20
- Plant response rating, Blackgrass [3, 9]: 20
- Plant response rating, Blackgrass [3, 10]: 25
- Plant response rating, Blackgrass [3, 11]: 5
- Plant response rating, Blackgrass [3, 15]: 85
- Plant response rating, Blackgrass [3, 13]: 100
- Plant response rating, Blackgrass [3, 14]: 100
- Plant response rating, Johnsongrass [4, 7]: 5
- Plant response rating, Johnsongrass [4, 8]: 10
- Plant response rating, Johnsongrass [4, 9]: 10
- Plant response rating, Johnsongrass [4, 10]: 20
- Plant response rating, Johnsongrass [4, 11]: 55
- Plant response rating, Johnsongrass [4, 12]: 75
- Plant response rating, Johnsongrass [4, 13]: 95
- Plant response rating, Johnsongrass [4, 14]: 98
- Plant response rating, Wheat [5, 7]: 10
- Plant response rating, Wheat [5, 8]: 10
- Plant response rating, Wheat [5, 9]: 15
- Plant response rating, Wheat [5, 10]: 30
- Plant response rating, Wheat [5, 11]: 0
- Plant response rating, Wheat [5, 12]: 0
- Plant response rating, Wheat [5, 13]: 20
- Plant response rating, Wheat [5, 14]: 35
- Plant response rating, Soybean (soybean (Glycine max); [7]): 30
- Plant response rating, Soybean (soybean (Glycine max); [8]): 55
- Plant response rating, Soybean (soybean (Glycine max); [9]): 55
- Plant response rating, Soybean (soybean (Glycine max); [10]): 65
- Plant response rating, Soybean (soybean (Glycine max); [11]): 0
- Plant response rating, Soybean (soybean (Glycine max); [12]): 5
- Plant response rating, Soybean (soybean (Glycine max); [13]): 10
- Plant response rating, Soybean (soybean (Glycine max); [14]): 50
- Plant response rating, Foxtail, Giant [6, 7]: 15
- Plant response rating, Foxtail, Giant [6, 8]: 15
- Plant response rating, Foxtail, Giant [6, 9]: 15
- Plant response rating, Foxtail, Giant [6, 10]: 25
- Plant response rating, Foxtail, Giant [6, 11]: 98
- Plant response rating, Foxtail, Giant [6, 12]: 100
- Plant response rating, Foxtail, Giant [6, 13]: 100
- Plant response rating, Foxtail, Giant [6, 14]: 100

SMILES: Cc1nn(-c2ccc(C(F)(F)F)cn2)nc1Cc1cccc(C(F)(F)F)c1 [Compound 106]
- Plant response rating, Kochia (kochia (Kochia scoparia); [7]): 85
- Plant response rating, Kochia (kochia (Kochia scoparia); [8]): 85
- Plant response rating, Kochia (kochia (Kochia scoparia); [9]): 85
- Plant response rating, Kochia (kochia (Kochia scoparia); [10]): 90
- Plant response rating, Kochia (kochia (Kochia scoparia); [11]): 0
- Plant response rating, Kochia (kochia (Kochia scoparia); [12]): 0
- Plant response rating, Kochia (kochia (Kochia scoparia); [13]): 45
- Plant response rating, Kochia (kochia (Kochia scoparia); [14]): 65
- Plant response rating, Pigweed [1, 7]: 95
- Plant response rating, Pigweed [1, 8]: 98
- Plant response rating, Pigweed [1, 9]: 98
- Plant response rating, Pigweed [1, 10]: 98
- Plant response rating, Pigweed [1, 11]: 85
- Plant response rating, Pigweed [1, 12]: 98
- Plant response rating, Pigweed [1, 13]: 100
- Plant response rating, Pigweed [1, 14]: 100
- Plant response rating, Corn (corn (Zea mays); [7]): 10
- Plant response rating, Corn (corn (Zea mays); [8]): 15
- Plant response rating, Corn (corn (Zea mays); [9]): 15
- Plant response rating, Corn (corn (Zea mays); [10]): 55
- Plant response rating, Corn (corn (Zea mays); [11]): 0
- Plant response rating, Corn (corn (Zea mays); [15]): 0
- Plant response rating, Corn (corn (Zea mays); [13]): 0
- Plant response rating, Corn (corn (Zea mays); [14]): 10
- Plant response rating, Velvetleaf [2, 7]: 5
- Plant response rating, Velvetleaf [2, 8]: 45
- Plant response rating, Velvetleaf [2, 9]: 65
- Plant response rating, Velvetleaf [2, 10]: 65
- Plant response rating, Velvetleaf [2, 11]: 0
- Plant response rating, Velvetleaf [2, 12]: 0
- Plant response rating, Velvetleaf [2, 13]: 0
- Plant response rating, Velvetleaf [2, 14]: 10
- Plant response rating, Blackgrass [3, 7]: 30
- Plant response rating, Blackgrass [3, 8]: 40
- Plant response rating, Blackgrass [3, 9]: 45
- Plant response rating, Blackgrass [3, 10]: 60
- Plant response rating, Blackgrass [3, 11]: 50
- Plant response rating, Blackgrass [3, 15]: 50
- Plant response rating, Blackgrass [3, 13]: 90
- Plant response rating, Blackgrass [3, 14]: 95
- Plant response rating, Johnsongrass [4, 7]: 0
- Plant response rating, Johnsongrass [4, 8]: 15
- Plant response rating, Johnsongrass [4, 9]: 40
- Plant response rating, Johnsongrass [4, 10]: 55
- Plant response rating, Johnsongrass [4, 11]: 0
- Plant response rating, Johnsongrass [4, 12]: 20
- Plant response rating, Johnsongrass [4, 13]: 75
- Plant response rating, Johnsongrass [4, 14]: 85
- Plant response rating, Wheat [5, 7]: 10
- Plant response rating, Wheat [5, 8]: 30
- Plant response rating, Wheat [5, 9]: 30
- Plant response rating, Wheat [5, 11]: 0
- Plant response rating, Wheat [5, 12]: 0
- Plant response rating, Wheat [5, 13]: 0
- Plant response rating, Wheat [5, 14]: 5
- Plant response rating, Soybean (soybean (Glycine max); [7]): 10
- Plant response rating, Soybean (soybean (Glycine max); [8]): 15
- Plant response rating, Soybean (soybean (Glycine max); [9]): 60
- Plant response rating, Soybean (soybean (Glycine max); [10]): 65
- Plant response rating, Soybean (soybean (Glycine max); [11]): 0
- Plant response rating, Soybean (soybean (Glycine max); [12]): 0
- Plant response rating, Soybean (soybean (Glycine max); [13]): 5
- Plant response rating, Soybean (soybean (Glycine max); [14]): 5
- Plant response rating, Foxtail, Giant [6, 7]: 40
- Plant response rating, Foxtail, Giant [6, 8]: 40
- Plant response rating, Foxtail, Giant [6, 9]: 55
- Plant response rating, Foxtail, Giant [6, 10]: 55
- Plant response rating, Foxtail, Giant [6, 11]: 65
- Plant response rating, Foxtail, Giant [6, 12]: 85
- Plant response rating, Foxtail, Giant [6, 13]: 100
- Plant response rating, Foxtail, Giant [6, 14]: 100
